Experiments:
[1] = tested on: vanilloid receptor-1 (VR1) expressed in CHO-K1 cells (RVR1/CHO and HVR1/CHO strains); experiment: Evaluation of compounds based on cell death (survival rate of VR1-expressing CHO strains); set-up: species or system rat, human; conditions: 1 μM test compound, 3 hours reaction, Alama Blue, cultured 20 hours; strain (RVR1/CHO or HVR1/CHO) not stated
Description: CHO-K1 cells (ATCC No.: CCL-61) were grown in a 150 cm^2 of a cell culture flask (Corning Coaster) using a Ham's F12 medium (GIBCO BRL) containing 10% fetal bovine serum (GIBCO BRL) and were collected from the flask by using 0.5 g/L trypsin-0.2 g/L EDTA (GIBCO BRL). The cells were washed with PBS (GIBCO BRL), centrifuged (1000 rpm, 5 minutes) and suspended in PBS. Then, the DNA was introduced into the cells using Gene Pulser (Bio-Rad Laboratories Inc.) under the following conditions. Namely, 1×10^7 cells and 15 μg of plasmid pRVR1 for expression of rat VR1 were added into a cuvette having a 0.4 cm of gap, and electroporation was carried out at an electric voltage of 0.25 kV and a capacitance of 960 μF. Subsequently, the cells were transferred into the Ham's F12 medium containing 10% fetal bovine serum, and incubated for 24 hours. The cells were then collected, centrifuged and suspended in Ham's F12 medium containing 10% fetal bovine serum and Geneticin (GIBCO BRL) at a concentration of 500 μg/ml. […]
Subsequently, the resulting Geneticin-resistant strains were cultured in the 96-well plates (Corning Coaster). […] Subsequently, the radioactivity was measured with TopCount (Packard Industry Company, Inc.) to select RVR1/CHO strains of which calcium concentration in the cells is increased when capsaicin is added thereto. […]

ICR male mice [2] = experiment: Mouse eye dropping test (stimulating and desensitizing activity, capsaicin challenge); type: in vivo; conditions: 0.01 ml dropped to the eye; capsaicin (0.3 μg) 1 hour after initial treatment; desensitizing activity
Description: Eight of 4 to 5 weeks old ICR male mice (Japan SLC Inc.) were used in a group in this test. 0.01 ml of the drug was added dropwise to the eye, and the time when the mouse continued to close the eye was measured. The stimulation of the drug was evaluated as positive when the time is more than 10 seconds, and as negative when the time is 10 seconds or less. At 1 hour after the initial treatment, a solution of capsaicin (0.3 μg) was added dropwise to the eye to evaluate whether the stimulation is or not, and examined the desensitizing activity of the compound. The stimulating and desensitizing activity of the drug were calculated as a value of ED50. The drug was dissolved in a mixture of 10% ethanol, 20% Tween 80 and 70% physiological saline solution.

SD male rats = experiment: Measurement of bladder volume (saline infusion under urethane anesthesia); type: in vivo, rat; conditions: sc, 12 hours after administration
Description: Measurement of Mouse Bladder Volume
Six or seven of 7 weeks old SD male rats were used in a group in this test. At 12 hours after the subcutaneous administration of the drug, the abdomen of rat was cut open under urethane anesthesia (1.2 g/kg, ip) to expose the bladder. Physiological saline solution was infused into the bladder at the rate of 0.1 ml/minutes to check excretion reflection. All of the urine was drained off, and the physiological saline solution was infused again, and then, the bladder volume of mouse was calculated by measuring the time to urination.

ICR male mice [3] = experiment: Tail-flick test (55° C. water bath); type: in vivo, mouse; conditions: po
Description: Eight of 5 weeks old ICR male mice were used in a group in this test. The tail of the mouse was dipped by about 2 cm from the end into water in a water bath warmed to 55° C., and the latency to lift the tail up was measured. The latency was previously measured before the administration of the drug, and the mouse having the latency of 2 seconds or less was selected and used in the test. The drug was administered orally, and the latency was measured after 3, 6 and 24 hours. Cut-off time was set to 5 seconds. The drug was suspended in 0.5% methylcellulose, and the dose was 20 ml/kg BW.

SMILES | survival rate of the cells [1] [%] | ED50 (ICR male mice [2]) [µg] | Bladder capacity (SD male rats; 3 mg/kg) [mL] | Bladder capacity (SD male rats; 10 mg/kg) [mL] | Latency (ICR male mice [3]; 10 mg/kg, 3 h after administration) [s] | Latency (ICR male mice [3]; 10 mg/kg, 6 h after administration) [s] | Latency (ICR male mice [3]; 10 mg/kg, 24 h after administration) [s] | Latency (ICR male mice [3]; 10 mg/kg, Pre (before administration)) [s] | Latency (ICR male mice [3]; 30 mg/kg, 3 h after administration) [s] | Latency (ICR male mice [3]; 30 mg/kg, 6 h after administration) [s] | Latency (ICR male mice [3]; 30 mg/kg, 24 h after administration) [s] | Latency (ICR male mice [3]; 30 mg/kg, Pre (before administration)) [s]
Cc1cc(C)c2c(C#N)c(/C=C/C(=O)N[C@@H]3CCOC(C)(C)C3)n([C@H]3CCCc4ccccc43)c2n1 [Example 74, (2E)-3-{3-cyano-4,6-dimethyl-1-[(1S)-1,2,3,4-tetrahydronaphthalen-1-yl]-1H-pyrrolo[2,3-b]pyridin-2-yl}-N-[(4R)-2,2-dimethyltetrahydro-2H-pyran-4-yl]prop-2-enamide] | 2 | 0.55 |  |  |  |  |  |  |  |  |  | 
Cc1cc(C)c2c(C#N)c(/C=C/C(=O)NC3CCOC(C)(C)C3)n(C3CCc4ccccc43)c2n1 (stereo not drawn) [Example 51, (2E)-3-[3-cyano-1-(indan-1-yl)-4,6-dimethyl-1H-pyrrolo[2,3-b]pyridin-2-yl]-N-(2,2-dimethyltetrahydro-2H-pyran-4-yl)acrylamide] |  |  | 1.76 ± 0.37 | 1.57 ± 0.23 | 0.85 ± 0.10 | 0.64 ± 0.04 | 0.78 ± 0.04 | 0.55 ± 0.02 | 2.31 ± 1.13 | 2.04 ± 1.15 | 3.36 ± 1.02 | 0.70 ± 0.07
